From ChEMBL document CHEMBL1817599, “Inhibition of LuxS by S-ribosylhomocysteine analogues containing a [4-aza]ribose ring” (Bioorg Med Chem, 2011)
pIC50: −log10 of the molar value. Calls of active or inactive are those of the source. The calls are words filed in the database; no cut-off is given here.

Assays:
[1] = target: T1, S-ribosylhomocysteine lyase (Bacillus subtilis (strain 168)) (UniProt O34667); assay: Inhibition of Bacillus subtilis LuxS preincubated for 15 mins by UV-vis spectrophotometric analysis
T1 sequence (whole entry): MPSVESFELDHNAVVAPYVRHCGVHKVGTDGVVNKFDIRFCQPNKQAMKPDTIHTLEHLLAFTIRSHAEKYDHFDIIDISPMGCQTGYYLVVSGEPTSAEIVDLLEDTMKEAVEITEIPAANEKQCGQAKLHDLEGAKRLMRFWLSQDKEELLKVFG

[2] = target: T1, S-ribosylhomocysteine lyase (Bacillus subtilis (strain 168)); assay: Competitive inhibition of Bacillus subtilis LuxS preincubated for 15 mins by UV-vis spectrophotometric analysis
[3] = target: T1, S-ribosylhomocysteine lyase (Bacillus subtilis (strain 168)); assay: Competitive inhibition of Bacillus subtilis LuxS preincubated for 30 mins by UV-vis spectrophotometric analysis
[4] = target: T2, S-ribosylhomocysteine lyase (Bacillus subtilis (strain 168), UniProt O34667); assay: as above
T2 sequence (O34667 whole entry): T1 sequence (whole entry)

[5] = target: T1, S-ribosylhomocysteine lyase (Bacillus subtilis (strain 168)); assay: Inhibition of Bacillus subtilis LuxS at 20 to 50 uM by UV-vis spectrophotometric analysis; conditions: TDE = time-dependent effect

Row | inhibition [1] | SMILES | also measured
1 | inactive | N[C@@H](CCSC[C@@H]1[C@@H](O)[C@@H](O)C(=O)N1Cc1ccccc1)C(=O)O | –
2 | inactive | CC1=N[C@H](CSCCC(N)C(=O)O)[C@@H](O)[C@H]1O (mixture of isomers) | –
3 | inactive | N[C@@H](CCSC[C@@H]1CCC(O)N1)C(=O)O (mixture of isomers) | –
4 | – | N[C@@H](CCSC[C@H]1NC[C@H](O)[C@@H]1O)C(=O)O | inhibition [2]: Dose-dependent effect
5 | inactive | NC(CCSC[C@@H]1CCC(=O)N1)C(=O)O (mixture of isomers) | –
6 | – | N[C@@H](CCSC[C@H]1NC(O)[C@H](O)[C@@H]1O)C(=O)O (mixture of isomers) | Ki [3]: 3.5 µM; pIC50 [4]: 4.22; inhibition [5]: tde
7 | inactive | CCCSC[C@@H]1CCC(O)N1 (mixture of isomers) | –
